# Measurements as given in patent US9512169B2, “3-substituted estra-1,3,5(10),16-tetraene derivatives, methods for the production thereof, pharmaceutical preparations containing same, and use thereof for the production of medicaments” (BAYER PHARMA AKTIENGESELLSCHAFT, priority 2012, dated 2016).
# Values joined by “and” are separate entries in the source; they are usually repeats but may differ in a detail not shown here. Equal values may be shown once.
# Target: T1, AKR1C3 (Homo sapiens (Human), UniProt P42330)
# T1 sequence (P42330 whole entry): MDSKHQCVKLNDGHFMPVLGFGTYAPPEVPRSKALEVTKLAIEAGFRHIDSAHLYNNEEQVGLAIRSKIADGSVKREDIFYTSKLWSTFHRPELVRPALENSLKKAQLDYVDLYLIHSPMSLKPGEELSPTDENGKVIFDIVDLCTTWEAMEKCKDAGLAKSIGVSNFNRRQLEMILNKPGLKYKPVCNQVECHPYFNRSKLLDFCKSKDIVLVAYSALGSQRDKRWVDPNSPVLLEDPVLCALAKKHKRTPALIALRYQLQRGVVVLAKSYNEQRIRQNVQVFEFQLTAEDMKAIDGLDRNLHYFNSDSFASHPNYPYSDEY
# Experiment: AKR1C3 enzyme inhibition assay (Coumberone to Coumberol fluorescence)
# Format: biochemical
# Conditions: recombinant human AKR1C3, 15 min pre-incubation, 90 min at 22° C.; repeated lines = two experimental determinations
# Experimental: The AKR1C3-inhibitory activity of the substances of the present invention was measured in the AKR1C3 assay described in the paragraphs below.
# Essentially, the enzyme activity is measured by quantification of the Coumberol from Coumberone (Halim, M., Yee, D. J., and Sames, D., J. AM. CHEM. SOC. 130, 14123-14128 (2008) and Yee, D. J., Balsanek, V., Bauman, D. R., Penning, T. M., and Sames, D., Proc. Natl. Acad. Sci. USA 103, 13304-13309 (2006)). In this test, the increase of the highly fluorescent Coumberol by NADPH- (nicotinamide adenine dinucleotide phosphate)-dependent reduction of the non-fluorescent Coumberone by AKR1C3 can be determined.
# The enzyme used was recombinant human AKR1C3 (Aldo-keto reductase family 1 member C3) (GenBank Accession No. NM_003739). This was expressed in E. coli as GST (glutathione S transferase) fusion protein and purified by glutathione Sepharose affinity chromatography. The GST was removed by digestion with thrombin and subsequent size exclusion chromatography (Dufort, I., Rheault, P., Huang, X F., Soucy, P., and Luu-The, V., Endocrinology 140, 568-574 (1999)).
# For the assay, 50 nl of a 100-fold concentrated solution of the test substance in DMSO were pipetted into a black low-volume 384-well microtiter plate (Greiner Bio-One, Frickenhausen, Germany), 2.0 μl of a solution of AKR1C3 in assay buffer [50 mM potassium phosphate buffer pH 7, 1 mM DTT, 0.0022% (w/v) Pluronic F-127, 0.01% BSA (w/v) and protease inhibitor cocktail (Complete, EDTA-free Protease Inhibitor Cocktail from Roche)] were added and the mixture was incubated for 15 min to allow pre-binding of the substances to the enzyme prior to the enzyme reaction. The enzyme reaction was then started by addition of 3 μl of a solution of NADPH (16.7 μM→final concentration in 5 μl of assay volume is 10 μM) and Coumberone (0.5 μM→final concentration in 5 μl of assay volume is 0.3 μM) in assay buffer, and the resulting mixture was incubated at 22° C. for the reaction time of 90 min. The concentration of the AKR1C3 was adapted to the respective activity of the enzyme preparation and adjusted such that the assay was carried out in the linear range. Typical concentrations were in the region of 1 nM. The reaction was stopped by addition of 5 μl of a stop solution consisting of the inhibitor EM-1404 [F. Labrie et al. U.S. Pat. No. 6,541,463, 2003] (2 μM→final concentration in […] is 1 μM). The fluorescence of the Coumberole was then measured at 520 nm (excitation at 380 nm) using a suitable measuring instrument (Pherastar from BMG Labtechnologies). The intensity of the fluorescence was used as a measure of the amount of Coumberole formed and thus of the enzyme activity of AKR1C3. The data were normalized (enzyme reaction without inhibitor=0% inhibition; all other assay components, but no enzyme=100% inhibition).
# As described, the pharmacological substances claimed were examined for their inhibitory activity on the AKR1C3 enzyme (see Table 1). The compounds claimed show a strong inhibition of AKR1C3 in vitro (IC50 values <200 nM) and in most cases even IC50 values <50 nM.
row,Structure (SMILES),IC50
1,"CC(Oc1ccc2c(c1)CC[C@@H]1[C@@H]2CC[C@]2(C)C(c3cncc(F)c3)=CC[C@@H]12)C(N)=O (mixture of isomers) [Example 14, (RS)-2-{[17-(5-Fluoropyridin-3-yl)estra-1,3,5(10),16-tetraen-3-yl]oxy}propanamide]",20 nM
2,"C[C@]12CC[C@@H]3c4ccc(OC(C(=O)O)c5ccccc5)cc4CC[C@H]3[C@@H]1CC=C2c1cncc(F)c1 (mixture of isomers) [Example 18, (RS)-{[17-(5-Fluoropyridin-3-yl)estra-1,3,5(10),16-tetraen-3-yl]oxy}(phenyl)acetic acid]",10 nM
3,"C[C@]12CC[C@@H]3c4ccc(OCC(=O)O)cc4CC[C@H]3[C@@H]1CC=C2c1cncc(F)c1 [Example 3, {[17-(5-Fluoropyridin-3-yl)estra-1,3,5(10),16-tetraen-3-yl]oxy}acetic acid]",16 nM and 8.6 nM
4,"Cc1cc(C2=CC[C@H]3[C@@H]4CCc5cc(OCC(=O)O)ccc5[C@H]4CC[C@]23C)cnn1 [Example 7, {[17-(6-Methylpyridazin-4-yl)estra-1,3,5(10),16-tetraen-3-yl]oxy}acetic acid]",1.4 nM
5,"CCC(Oc1ccc2c(c1)CC[C@@H]1[C@@H]2CC[C@]2(C)C(c3cncc(F)c3)=CC[C@@H]12)C(=O)O (mixture of isomers) [Example 11, (RS)-2-{[17-(5-Fluoropyridin-3-yl)estra-1,3,5(10),16-tetraen-3-yl]oxy}butanoic acid]",2.5 nM
6,"C[C@]12CC[C@@H]3c4ccc(OCC(O)CO)cc4CC[C@H]3[C@@H]1CC=C2c1cncc(F)c1 (mixture of isomers) [Example 17, (RS)-3-{[17-(5-Fluoropyridin-3-yl)estra-1,3,5(10),16-tetraen-3-yl]oxy}propan-1,2-diol]",25 nM
7,"CC(Oc1ccc2c(c1)CC[C@@H]1[C@@H]2CC[C@]2(C)C(c3cccnc3)=CC[C@@H]12)C(=O)O (mixture of isomers) [Example 13, (RS)-2-{[17-(3-Pyridyl)estra-1,3,5(10),16-tetraen-3-yl]oxy}propanoic acid]",2.8 nM
8,"CC(C)(CO)COc1ccc2c(c1)CC[C@@H]1[C@@H]2CC[C@]2(C)C(c3cncc(F)c3)=CC[C@@H]12 [Example 16, 3-{[17-(5-Fluoropyridin-3-yl)estra-1,3,5(10),16-tetraen-3-yl]oxy}-2,2-dimethylpropan-1-ol]",124 nM
9,"C[C@]12CC[C@@H]3c4ccc(OCC(=O)O)cc4CC[C@H]3[C@@H]1CC=C2c1cncnc1 [Example 5, {[17-(Pyrimidin-5-yl)estra-1,3,5(10),16-tetraen-3-yl]oxy}acetic acid]",89 nM
10,"COCC(Oc1ccc2c(c1)CC[C@@H]1[C@@H]2CC[C@]2(C)C(c3cncc(F)c3)=CC[C@@H]12)C(=O)O (mixture of isomers) [Example 12, (RS)-2-{[17-(5-Fluoropyridin-3-yl)estra-1,3,5(10),16-tetraen-3-yl]oxy}-3-methoxy-propanoic acid]",4 nM
11,"C[C@]12CC[C@@H]3c4ccc(OCCCO)cc4CC[C@H]3[C@@H]1CC=C2c1cncc(F)c1 [Example 15, 3-{[17-(5-Fluoropyridin-3-yl)estra-1,3,5(10),16-tetraen-3-yl]oxy}propan-1-ol]",54 nM
12,"Cc1ccc(C2=CC[C@H]3[C@@H]4CCc5cc(OCC(=O)O)ccc5[C@H]4CC[C@]23C)cn1 [Example 4, {[17-(6-Methylpyridin-3-yl)estra-1,3,5(10),16-tetraen-3-yl]oxy}acetic acid]",136 nM
13,"C[C@]12CC[C@@H]3c4ccc(OCC(=O)O)cc4CC[C@H]3[C@@H]1CC=C2c1cncc(C(F)(F)F)c1 [Example 2, ({17-[5-(Trifluoromethyl)pyridin-3-yl]estra-1,3,5(10),16-tetraen-3-yl}oxy)acetic acid]",33 nM and 23 nM
14,"CCNC(=O)COc1ccc2c(c1)CC[C@@H]1[C@@H]2CC[C@]2(C)C(c3cncc(C(F)(F)F)c3)=CC[C@@H]12 [Example 19, N-Ethyl-2-({17-[5-(trifluoromethyl)pyridin-3-yl]estra-1,3,5(10),16-tetraen-3-yl}oxy)acetamide]",53 nM
15,"C[C@]12CC[C@@H]3c4ccc(OCCCC(=O)O)cc4CC[C@H]3[C@@H]1CC=C2c1cncc(F)c1 [Example 9, 4-{[17-(5-Fluoropyridin-3-yl)estra-1,3,5(10),16-tetraen-3-yl]oxy}butanoic acid]",42 nM
16,"CC(Oc1ccc2c(c1)CC[C@@H]1[C@@H]2CC[C@]2(C)C(c3cncc(F)c3)=CC[C@@H]12)C(=O)O (mixture of isomers) [Example 10, (RS)-2-{[17-(5-Fluoropyridin-3-yl)estra-1,3,5(10),16-tetraen-3-yl]oxy}propanoic acid]",2.7 nM
17,"CC(C)(COc1ccc2c(c1)CC[C@@H]1[C@@H]2CC[C@]2(C)C(c3cncc(F)c3)=CC[C@@H]12)C(=O)O [Example 8, 3-{[17-(5-Fluoropyridin-3-yl)estra-1,3,5(10),16-tetraen-3-yl]oxy}-2,2-dimethylpropanoic acid]",12 nM and 11 nM
18,"C[C@]12CC[C@@H]3c4ccc(OCC(=O)O)cc4CC[C@H]3[C@@H]1CC=C2c1cncc(C(=O)O)c1 [Example 6, 5-[3-(Carboxymethoxy)estra-1,3,5(10),16-tetraen-17-yl]nicotinic acid]",9.2 nM

# Target: T1, AKR1C3
# Experiment: AKR1C3 inhibition in a cell-based system (HEK293 cells transfected with AKR1C3 expression plasmid, coumberol fluorescence)
# Conditions: HEK293 cells transfected with AKR1C3, incubation overnight; repeated lines = independent determinations; read-out: Cellular AKR1C3 inhibition IC50
# Experimental: The inhibition of AKR1C3 by the substances described in the present invention was measured in a cell-based assay using […] as substrate for the AKR1C3 (Halim, M., Yee, D. J., and Sames, D., J. AM. CHEM. SOC. 130, 14123-14128 (2008) and Yee, D. J., Balsanek, V., Bauman, D. R., Penning, T. M., and Sames, D., Proc. Natl. Acad. Sci. USA 103, 13304-13309 (2006)) (cf. Example 20).
# The cell system used were HEK293 cells (ATCC, USA) (cell culture medium: DMEM, 1.5 g glucose, 10% FCS, PSG). The cells were transfected in an AKR1C3 expression plasmid (pCMV6-AC-AKR1C3, GenBank Accession No. NM_003739.4) overnight (X-tremeGENE HP, Roche). The next morning, the cells were sown in black 96well cell culture plates at a cell density of 40000 cells/well (Greiner Bio-One, Frickenhausen, Germany). After 7 h, the cells were incubated with the test substances (dissolved in 100× concentration in DMSO, final concentration between 10^−11M and 10^−5M) and […] (dissolved in cell culture medium, final concentration 5×10^−6M) overnight. The next morning, the fluorescence of coumberol was measured at 535 nm (excitation at 355 nm) using a suitable measuring instrument (Mithras, from Berthold). The fluorescence intensity was used as a measure of the amount of coumberol formed and thus of the enzyme activity of AKR1C3. The data were normalized (transfected cells without inhibitor, only DMSO=0% inhibition; transfected cells, 10 μM inhibitor EM-1404 [F. Labrie et al. U.S. Pat. No. 6,541,463, 2003]=100% inhibition), and the IC50 values were calculated using a 4-parameter fit.
# In the cell-based assay described above, the pharmacological substances claimed were examined for their inhibitory activity on the AKR1C3 enzyme (see Table 2).
row,Structure (SMILES),IC50
1,"C[C@]12CC[C@@H]3c4ccc(OCC(=O)O)cc4CC[C@H]3[C@@H]1CC=C2c1cncc(F)c1 [Example 3, {[17-(5-Fluoropyridin-3-yl)estra-1,3,5(10),16-tetraen-3-yl]oxy}acetic acid]",49 nM and 56 nM and 31 nM
2,"C[C@]12CC[C@@H]3c4ccc(OCC(=O)O)cc4CC[C@H]3[C@@H]1CC=C2c1cncc(C(F)(F)F)c1 [Example 2, ({17-[5-(Trifluoromethyl)pyridin-3-yl]estra-1,3,5(10),16-tetraen-3-yl}oxy)acetic acid]",48 nM and 68 nM
3,"CC(C)(COc1ccc2c(c1)CC[C@@H]1[C@@H]2CC[C@]2(C)C(c3cncc(F)c3)=CC[C@@H]12)C(=O)O [Example 8, 3-{[17-(5-Fluoropyridin-3-yl)estra-1,3,5(10),16-tetraen-3-yl]oxy}-2,2-dimethylpropanoic acid]",170 nM and 220 nM
